Patent EP0777471B1, “INHIBITION OF LEUKOTRIENE BIOSYNTHESIS WITH UREA DERIVATIVES” (MINNESOTA MINING AND MANUFACTURING COMPANY, priority 1994, dated 1996)
Where “and” joins values, the source holds several entries; their conditions need not be identical. Equal values may be shown once. Read-outs that look alike come from different tables or passages of the source.

How the values were obtained:
5-lipoxygenase = target: T1, 5-lipoxygenase (Homo sapiens, UniProt P09917); assay: 5-Lipoxygenase inhibition in human leukocytes (A23187-stimulated, LTC4 radioimmunoassay); type: cell-based
T1 construct: Whole human blood is collected by venipuncture into EDTA; endogenous in cells; host or cells: leukocytes isolated from whole human blood (dextran sedimentation, hypotonic lysis)
T1 sequence (P09917 1-674): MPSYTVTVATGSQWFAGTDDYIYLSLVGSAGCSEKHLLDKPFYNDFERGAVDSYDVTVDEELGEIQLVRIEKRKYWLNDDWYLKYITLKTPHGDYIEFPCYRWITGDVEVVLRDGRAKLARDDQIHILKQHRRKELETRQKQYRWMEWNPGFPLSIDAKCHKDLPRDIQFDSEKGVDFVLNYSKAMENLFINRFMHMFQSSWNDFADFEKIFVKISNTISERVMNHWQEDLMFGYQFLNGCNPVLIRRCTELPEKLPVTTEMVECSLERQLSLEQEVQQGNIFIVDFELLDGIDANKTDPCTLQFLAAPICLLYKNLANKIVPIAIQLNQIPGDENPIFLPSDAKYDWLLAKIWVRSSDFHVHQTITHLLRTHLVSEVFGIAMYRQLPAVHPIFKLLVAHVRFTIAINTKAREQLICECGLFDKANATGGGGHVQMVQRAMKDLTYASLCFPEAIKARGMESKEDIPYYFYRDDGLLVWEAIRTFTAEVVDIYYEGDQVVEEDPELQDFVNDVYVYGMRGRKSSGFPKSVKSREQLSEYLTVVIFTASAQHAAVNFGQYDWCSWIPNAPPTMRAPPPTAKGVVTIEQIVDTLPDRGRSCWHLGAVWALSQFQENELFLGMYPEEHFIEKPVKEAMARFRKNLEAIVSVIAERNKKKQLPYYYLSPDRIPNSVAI
Procedure: The test method described below measures the ability of compounds to inhibit 5-lipoxygenase activity in human leukocytes.
Whole human blood is collected by venipuncture into EDTA (1.4 mL of 0.25M per 60 mL of whole blood). The red blood cells are sedimented with a 6% dextran/0.9% sodium chloride solution at a ratio of 25 mL whole blood to 15 mL dextran solution. The blood/dextran combination is mixed by inversion and the red blood cells are allowed to settle out for 45 minutes at ambient temperature. The plasma/dextran supernatant is removed then centrifuged at ambient temperature at 3000 rpm for 10 minutes. The plasma/dextran supernatant is removed and the cells are resuspended in 10 mL of the plasma/dextran solution. […] The pellet is then resuspended into Tris buffer containing 1 mM calcium chloride to provide approximately 1.0 X 10^7 cells/mL.
Compounds are dissolved in dimethyl sulfoxide. […] Each concentration is tested in duplicate.
A 15 µL portion of Tris buffer containing 1 mM calcium chloride is added to each well of a 96 well microtiter plate. A 1 µL portion of drug solution or vehicle (dimethyl sulfoxide) is added to each well followed by the addition of an 75 µL portion of the cell suspension. The plates are gently mixed then allowed to stand at ambient temperature for 10 minutes. A 10 µL portion of 30 µM A23187 Calcium Ionophore (prepared by dissolving the ionophore in DMSO and then diluting 1:80 into the Tris buffer) is added to each well except the wells that contain the blanks (The blank wells measure the level of LTC4 production in the absence of A23187.). The plates are gently mixed then incubated at 37°C for 10 minutes.
Following incubation the plates are centrifuged at 2000 rpm for 1.5 minutes and the supernatant is removed as quickly as possible to stop the reaction. The supernatants are frozen at -20°C until they are assayed.
The supernatants are assayed for the presence of Leukotriene C4 by radioimmunoassay which is performed according to the manufacturer's (Advanced Magnetics; Cambridge, MA) instructions.

[1] = test system: production of Leukotriene B4 (LTB4); assay: Dog ex vivo Leukotriene B4 inhibition (oral dosing, blood challenged with calcium ionophore); type: in vivo, beagle dogs; details: each entry one dog, negative = stimulation of LTB4 production; for % Inhibition 6 hour / % Inhibition 2 hour / % Inhibition 4 hour / % Inhibition 1 hour: 5 mg/Kg; for inhibition at 5 mg/kg: Canis lupus familiaris, po
Summary of the method: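 Beagle dogs (~10 kg) given compound orally by gavage in PEG 400 at 5 mg/kg; jugular blood drawn pre-dose and at selected post-dose times. Blood challenged with calcium ionophore 30 min at 37°C, plasma LTB4 measured by radioimmunoassay; % inhibition from post-dose versus pre-dose LTB4, one dog per value.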

[2] = human leukocytes, A23187 Calcium Ionophore, LTC4 formed, read-out: IC50
[3] = 1 h, 1 hour post dose, read-out: % Inhibition 1 hour
[4] = 2 h, 2 hour post dose, read-out: % Inhibition 2 hour
[5] = 4 h, 4 hour post dose, read-out: % Inhibition 4 hour
[6] = 6 h, 6 hour post dose, read-out: % Inhibition 6 hour

Compound | IC50 (5-lipoxygenase; [2]) [nM] | % Inhibition 6 hour ([1]; 6 hour post dose) | inhibition at 5 mg/kg [1, 3] [%] | inhibition at 5 mg/kg [1, 4] [%] | inhibition at 5 mg/kg [1, 5] [%] | inhibition at 5 mg/kg [1, 6] [%] | % Inhibition 2 hour ([1]; 2 hour post dose) | % Inhibition 4 hour ([1]; 4 hour post dose) | % Inhibition 1 hour ([1]; 1 hour post dose) [%] | IC50 (5-lipoxygenase) [nM]
CSc1ccc(NC(=O)N(C)O)cc1 [Compound 1, 1-Hydroxy-1-methyl-3-[4-(methylthio)phenyl]urea] | 83 | 95% | 100 | 100 | 100 | 93 |  |  |  | 
COc1cccc(NC(=O)N(C)O)c1 [Compound 5, 1-hydroxy-3-(3-methoxyphenyl)-1-methylurea] | 420 | 20% and 50% | 100 |  |  |  | 75% | 99% and 44% |  | 
CN(O)C(=O)Nc1cccc(Br)c1 [Compound 6, 3-(3-bromophenyl)-1-hydroxy-1-methylurea] | 70 | -52% and 19% | 86 |  |  |  | 11% and 62% | -36% and 27% | 100 | 
Cc1cccc(NC(=O)N(C)O)c1 [Compound 7, 1-hydroxy-1-methyl-3-(3-methylphenyl)urea] | 280 | -21% and 48% | 100 | 100 | 70 |  | 99% | 56% |  | 
CN(O)C(=O)Nc1cccc(F)c1 [Compound 8, 3-(3-fluorophenyl)-1-hydroxy-1-methylurea] | 680 | 9% and -32% | 100 | 92 |  |  |  | 27% and 11% |  | 
CN(O)C(=O)Nc1cccc([N+](=O)[O-])c1 [Compound 9, 1-hydroxy-1-methyl-3-(3-nitrophenyl)urea] | 80 | 54% | 100 |  | 33 | 56 | 34% and 83% | 18% |  | 
CN(O)C(=O)Nc1ccccc1 [Compound 10, 1-hydroxy-1-methyl-3-phenylurea] | 20 | 42% | 100 | 100 | 49 | 52 |  | 34% |  | 
CSc1cccc(NC(=O)N(O)C(C)C)c1 [Compound 16, 1-hydroxy-1-(1-methylethyl)-3-[3-(methylthio)phenyl]urea] | 8 | -39% and -24% and -186% | 100 | 97 |  |  |  | -8% and -18% and -14% and -80% |  | 
CC(C)N(O)C(=O)Nc1ccccc1 [Compound 17, 1-hydroxy-1-(1-methylethyl)-3-phenylurea] | 43 | 64% and 43% | 100 | 98 |  |  |  | 70% |  | 
CC(C)N(O)C(=O)Nc1ccc(F)cc1 [Compound 18, 3-(4-fluorophenyl)-1-hydroxy-1-(1-methylethyl)urea] | 210 | 46% and -12% | 100 | 100 | 49 |  |  | 57% |  | 
CC(C)N(O)C(=O)Nc1ccc(Br)cc1 [Compound 19, 3-(4-bromophenyl)-1-hydroxy-1-(1-methylethyl)urea] | 100 | 29% and 65% | 100 | 84 |  |  |  | 11% and 74% |  | 
CC(C)N(O)C(=O)Nc1ccccc1F [Compound 20, 3-(2-fluorophenyl)-1-hydroxy-1-(1-methylethyl)urea] | 700 | 13% | 100 | 100 | 57 | 17 |  | 64% |  | 
Cc1cccc(NC(=O)N(O)C(C)C)c1 [Compound 21, 1-hydroxy-1-(1-methylethyl)-3-(3-methylphenyl)urea] | 230 | 24% and -8% | 100 | 95 |  |  | 88% | 0% and -37% |  | 
COc1ccc(NC(=O)N(O)C(C)C)cc1 [Compound 23, 1-hydroxy-3-(4-methoxyphenyl)-1-(1-methylethyl)urea] | 150 | 15% and 80% and 98% and 56% | 100 | 99 |  |  |  | 84% and 82% and 59% |  | 
CC(C)N(O)C(=O)Nc1ccccc1Cl [Compound 24, 3-(2-chlorophenyl)-1-hydroxy-1-(1-methylethyl)urea] |  | -21% and -24% | 99 | 73 | 7 |  | 84% | 14% | 100 | 200
Cc1ccccc1NC(=O)N(O)C(C)C [Compound 25, 1-hydroxy-1-(1-methylethyl)-3-(2-methylphenyl)urea] | 130 | 9% | 100 | 51 |  | 7 | 57% | -45% and -78% | 98 | 
